Laboratory results taken from publication PMC6107785, “Thiodipeptides targeting the intestinal oligopeptide transporter as a general approach to improving oral drug delivery” (European Journal of Medicinal Chemistry, 2018).
Where a name gives a salt, the structure may show the parent alone. Read-outs that look alike come from different tables or passages of the source. Peptide text beside a SMILES is read from it.

Assays:
[1] = Oral pharmacokinetics in male Sprague-Dawley rats; details: for Cmax / Tmax: rat plasma
Method: (§2) Animals were given free access to food and water throughout the study and maintained under a 12-h light/dark cycle with temperature and humidity controlled according to Home Office regulations.
(§3) Blood samples (230 μL) were taken from the carotid artery at the following time points and placed in heparinized tubes: predose, 0.25, 0.5, 1, 2, 4, 8 and 24 h post dose. After the final time point the animals were sacrificed by an overdose of anaesthetic.
(§4) Blood samples were centrifuged to obtain the plasma, which was transferred to a separate labelled container. Aliquots from the individual time points for the three animals were analyzed singly. 80 μL of plasma was diluted with 20 μL of 1:1 ACN:water, then 800 μL chilled ACN was added, samples briefly vortex mixed and the centrifuged at 13000 rpm for 5 min at 4 °C. 500 μL of the resultant supernatant was further diluted with 500 μL water.
(§5) 20 μL sample was analyzed by LC-MS/MS using a C18 5 μm Gemini UHPLC column running a gradient of 90% 0.04% acetic acid in water to 90% ACN over 3 min at a flow rate of 0.5 mL min^−1. MS data was acquired under multiple reaction monitoring conditions using a turbo spray ion source. The concentration in the plasma was determined by comparison to standard curves of the administered compound prepared in blank plasma matrices and treated in an identical manner to the samples.

rabbit PepT1 [2] = biological target: T1, rabbit PepT1 (Oryctolagus cuniculus, UniProt P36836); experiment: Inhibition of radiolabelled D-Phe-L-Gln uptake in Xenopus laevis oocytes expressing rabbit PepT1 (binding affinity); details: oocytes expressing rabbit PepT1, pH 5.5 assay buffer
T1 construct: expressed in transfected cells; host or cells: Xenopus laevis oocytes
T1 sequence (P36836 1-707): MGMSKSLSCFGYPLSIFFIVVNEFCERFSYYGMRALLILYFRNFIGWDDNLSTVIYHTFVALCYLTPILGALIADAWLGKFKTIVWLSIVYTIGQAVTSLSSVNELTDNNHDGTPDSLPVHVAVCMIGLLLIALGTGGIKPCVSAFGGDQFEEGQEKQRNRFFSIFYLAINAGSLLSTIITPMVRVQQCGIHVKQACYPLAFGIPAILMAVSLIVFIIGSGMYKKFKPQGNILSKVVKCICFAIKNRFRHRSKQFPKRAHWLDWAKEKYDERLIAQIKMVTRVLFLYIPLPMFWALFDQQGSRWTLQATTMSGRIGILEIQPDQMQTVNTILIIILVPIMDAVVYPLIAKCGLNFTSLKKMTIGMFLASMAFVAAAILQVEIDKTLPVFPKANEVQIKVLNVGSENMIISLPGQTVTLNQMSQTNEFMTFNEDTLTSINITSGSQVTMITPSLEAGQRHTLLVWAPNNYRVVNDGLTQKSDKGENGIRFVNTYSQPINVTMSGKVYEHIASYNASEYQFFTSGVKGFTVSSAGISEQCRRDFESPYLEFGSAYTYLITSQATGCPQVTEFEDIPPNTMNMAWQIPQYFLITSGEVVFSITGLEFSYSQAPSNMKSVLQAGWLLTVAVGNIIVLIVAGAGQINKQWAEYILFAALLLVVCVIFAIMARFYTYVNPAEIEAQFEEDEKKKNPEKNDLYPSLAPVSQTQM
Method: (§1) The Ki, trans-stimulation efflux and Caco-2 assays were performed as described previously.

[3] = Stability in rat liver homogenate; assay type: in vitro ADME; details: 37 °C; for half-life at 0.5 mM: male, rat, rat liver homogenate, pH 7.5, 0.5 mM compound, read-out: Rat liver homgenate t1/2 (converted)
Method: Fresh rat liver homogenate was prepared by isolating liver from euthanized male rats, according to approved Home Office procedures. The liver was chopped with scissors and rinsed with medium (0.25 M sucrose, 25 mM KCl, 5 mM MgCl2 and 50 mM Tris/HCl, pH7.5) to remove trapped blood. The liver was then homogenized in fresh medium with a loose-fitting dounce-type homogenizer and kept on ice. Liver homogenate was incubated with either 0.5 mM compound 1 or 3, or L-Trp-L-Ala as a positive control, at 37 °C. 250 μl aliquots of the homogenate were taken at 0, 0.25, 0.5, 1, 2, 6 and 24 h. The samples were precipitated by addition an equal volume of 3% perchloric acid and centrifugation at 17000g for 5 min. The perchloric acid was neutralized with 250 μl of 1 M KOH, and the sample subjected to a freeze/thaw cycle to precipitate the KClO4 salt before again being centrifuged. The supernatant was then analyzed by HPLC as for the Caco-2 permeability studies, and the half-life of the compounds calculated according to the method of Vig et al..

rabbit PepT1 [4] = biological target: T1, rabbit PepT1; experiment: Trans-stimulation efflux of [3H]-D-Phe-L-Gln from rabbit PepT1 expressing oocytes; assay type: cell-based; details: 10 mM prodrug, [3H]-D-Phe-L-Gln efflux, compared to GlyGln
Method: Trans-stimulation assays were performed using radiolabelled [^3H]-D-Phe-L-Gln efflux from rabbit PepT1 expressing oocytes in the presence of 10 mM pro-drug. As controls, 10 mM Gly-L-Gln (a standard PepT1 substrate) or buffer lacking a substrate (negative control) were used.
as §1

[5] = Caco-2 monolayer apical to basolateral transport; assay type: in vitro ADME; details: human, 2 mM prodrug, mean ± RSD, read-out: Overall Papp
Method: Prodrugs that generated robust trans-stimulated efflux in oocytes were further in a Caco-2 monolayer assay to investigate further the extent and rate of trans-epithelial transport. […] Apical to basolateral transport of 2 mM pro-drug, applied to the apical side, was monitored by high performance liquid chromatography (HPLC) after 1 h. The presence or absence of excess Gly-Gln allowed us to determine both the overall and PepT1 specific permeability (Table 2). […] The PepT1 mediated Papp values are of similar magnitude to known PepT1 (pro)drug substrates.
as §1

rabbit PepT1 [6] = biological target: T1, rabbit PepT1; set-up: method as in PMID 19262922; details: 10 mM prodrug, [3H]-D-Phe-L-Gln efflux; previously reported data ref 16; cited from earlier work
[7] = male, Sprague-Dawley, rat, in vivo, po, 6 mg/kg
Method: as §2, §3, §4, §5

in vivo = details: male, Sprague-Dawley, rat, po, 6 mg/kg
Method: as §2, §3, §4, §5

[8] = humans; cited from earlier work
[9] = rats; cited from earlier work
[10] = pH 5.5

CC(=O)N[C@H]1[C@H]([C@H](O)[C@H](O)COC(=O)C[C@H](NC(=S)[C@H](C)N)C(=O)O)OC(C(=O)O)=C[C@@H]1NC(=N)N (as salt: salt) (hydrate or solvate) [Compound 9, (4S,5R,6R)-5-acetamido-6-((1R,2R)-3-((S)-3-((S)-2-aminopropanethioamido)-3-carboxypropanoyloxy)-1,2-dihydroxypropyl)-4-guanidino-5,6-dihydro-4H-pyran-2-carboxylic acid]
melting point: 210 to 212 °C

C[C@H](N)C(=S)N[C@@H](COC(=O)C[C@@H](CN)c1ccc(Cl)cc1)C(=O)O (as salt: salt) (hydrate or solvate) [Compound 10, (S)-3-((R)-4-amino-3-(4-chlorophenyl)butanoyloxy)-2-((S)-2-aminopropanethioamido)propanoic acid]
melting point: 112 to 115 °C

COc1c(C)c2c(c(O)c1C/C=C(\C)CCC(=O)OC[C@H](NC(=S)[C@H](C)N)C(=O)O)C(=O)OC2 (as salt: salt) (hydrate or solvate) [Compound 11, (S)-2-((S)-2-aminopropanethioamido)-3-((E)-6-(4-hydroxy-6-methoxy-7-methyl-3-oxo-1,3-dihydroisobenzofuran-5-yl)-4-methylhex-4-enoyloxy)propanoic acid]
melting point: 140 to 143 °C

CC(C)NC[C@@H](COc1ccc(CC(N)=O)cc1)OC(=O)C[C@H](NC(=S)[C@H](C)N)C(=O)O (as salt: salt) [Compound 8, (S)-4-((S)-3-(4-(2-amino-2-oxoethyl)phenoxy)-1-(isopropylamino)propan-2-yloxy)-2-((S)-2-aminopropanethioamido)-4-oxobutanoic acid]
melting point: 118 to 121 °C

CC(C)Cc1ccc([C@@H](C)C(=O)OC[C@H](NC(=S)[C@H](C)N)C(=O)O)cc1 [Compound 1]
AUC ([1]; male, Sprague-Dawley, rat, plasma, po, 10 mg/kg): 500 ± 100 ng·h/mL
Cmax ([1]; male, Sprague-Dawley, rat, plasma, po, 10 mg/kg, CMax, 1 at 10 mg kg^−1 oral, assayed compound intact 1): 200 ± 40 ng/mL
Tmax ([1]; male, Sprague-Dawley, rat, plasma, po, 10 mg/kg, 1 at 10 mg kg^−1 oral, assayed compound intact 1): 1 h
Ki (rabbit PepT1 [2]): 260 ± 30 µM
half-life at 0.5 mM [3]: > 17 h
Trans-stimulated efflux? (rabbit PepT1 [4]): Yes
Papp at 1 h, 2 mM [5]: 3.7 ± 0.2 ×10⁻⁶ cm/s

C[C@H](N)C(=S)N[C@@H](COC(=O)CC1(CN)CCCCC1)C(=O)O [Compound 2, (S)-3-[2-(1-Aminomethyl-cyclohexyl)-acetoxy]-2-((S)-2-amino-thiopropionylamino)-propionic acid]
Ki (rabbit PepT1 [2]): 1010 ± 330 µM
Trans-stimulated efflux? (rabbit PepT1 [4]): Yes
Papp at 1 h, 2 mM [5]: 0.6 ± 0.1 ×10⁻⁶ cm/s

CC(C)c1cccc(C(C)C)c1OC(=O)C[C@H](NC(=S)[C@H](C)N)C(=O)O [Compound 3, (S)-2-((S)-2-Amino-thiopropionylamino)-succinic acid 4-(2,6-diisopropyl-phenyl) ester]
Cmax ([1]; 3 at 7.6 mg kg^−1 oral, assayed compound intact 3): 16300 ± 1800 ng/mL
AUC ([1]; male, Sprague-Dawley, rat, plasma, po, 7.6 mg/kg): 3200 ± 1400 ng·h/mL
Cmax ([1]; male, Sprague-Dawley, rat, plasma, po, 7.6 mg/kg, CMax, 3 at 7.6 mg kg^−1 oral, assayed compound intact 3): 16700 ng/mL
Tmax ([1]; male, Sprague-Dawley, rat, plasma, po, 7.6 mg/kg, 3 at 7.6 mg kg^−1 oral, assayed compound intact 3): 5.2 ± 0.8 h
Ki (rabbit PepT1 [2]): 920 ± 190 µM
Rat liver homgenate t1/2 ([3]; 0.5 mM compound): 7.3 h
half-life at 0.5 mM [3]: 7 h
Trans-stimulated efflux? (rabbit PepT1 [4]): Yes

COc1ccc2cc(CC/C(C)=N/OCCOC(=O)C[C@H](NC(=S)[C@H](C)N)C(=O)O)ccc2c1 [Compound 6]
Trans-stimulated efflux? (rabbit PepT1 [6]): Yes

CC(C)NC[C@@H](COc1ccc(CC(N)=O)cc1)OC(=O)C[C@H](NC(=S)[C@H](C)N)C(=O)O [Compound 8, (S)-4-((S)-3-(4-(2-amino-2-oxoethyl)phenoxy)-1-(isopropylamino)propan-2-yloxy)-2-((S)-2-aminopropanethioamido)-4-oxobutanoic acid]
Ki (rabbit PepT1 [2]): 440 ± 150 µM
Trans-stimulated efflux? (rabbit PepT1 [4]): No

CC(=O)N[C@H]1[C@H]([C@H](O)[C@H](O)COC(=O)C[C@H](NC(=S)[C@H](C)N)C(=O)O)OC(C(=O)O)=C[C@@H]1NC(=N)N [Compound 9, (4S,5R,6R)-5-acetamido-6-((1R,2R)-3-((S)-3-((S)-2-aminopropanethioamido)-3-carboxypropanoyloxy)-1,2-dihydroxypropyl)-4-guanidino-5,6-dihydro-4H-pyran-2-carboxylic acid]
Ki (rabbit PepT1 [2]): 130 ± 20 µM
Trans-stimulated efflux? (rabbit PepT1 [4]): No

C[C@H](N)C(=S)N[C@@H](COC(=O)C[C@@H](CN)c1ccc(Cl)cc1)C(=O)O [Compound 10, (S)-3-((R)-4-amino-3-(4-chlorophenyl)butanoyloxy)-2-((S)-2-aminopropanethioamido)propanoic acid]
Ki (rabbit PepT1 [2]): 1870 ± 260 µM
Trans-stimulated efflux? (rabbit PepT1 [4]): No

COc1c(C)c2c(c(O)c1C/C=C(\C)CCC(=O)OC[C@H](NC(=S)[C@H](C)N)C(=O)O)C(=O)OC2 [Compound 11, (S)-2-((S)-2-aminopropanethioamido)-3-((E)-6-(4-hydroxy-6-methoxy-7-methyl-3-oxo-1,3-dihydroisobenzofuran-5-yl)-4-methylhex-4-enoyloxy)propanoic acid]
Ki (rabbit PepT1 [2]): 210 ± 80 µM
Trans-stimulated efflux? (rabbit PepT1 [4]): only weakly triggered efflux and Weak

C[C@H](NC(=O)[C@@H](N)Cc1ccccc1)C(N)=S [FSA, PheΨ[CS-NH]-Ala, reference compound]
Ki (rabbit PepT1 [2]): 320 ± 80 µM
Trans-stimulated efflux? (rabbit PepT1 [4]): No
Papp at 1 h, 2 mM [5]: 3 ± 0.5 ×10⁻⁶ cm/s

CC(C)Cc1ccc(C(C)C(=O)O)cc1 (stereo not shown) [Ibuprofen]
Tmax [7]: 0.7 ± 0.3 h
AUC (in vivo): 14000 ± 1800 ng·h/mL
Cmax (in vivo; CMax): 5700 ± 600 ng/mL
Tmax (in vivo; tmax): 1 h

C[C@H](NC(=O)[C@@H](N)Cc1c[nH]c2ccccc12)C(=O)O [L-Trp-L-Ala, reference compound] (H-Trp-Ala-OH)
half-life at 0.5 mM [3]: 0.15 h

CC(C)c1cccc(C(C)C)c1O [propofol]
Oral bioavailability [8]: no oral bioavailability
Oral bioavailability [9]: no oral bioavailability

(S)-2-((S)-2-Amino-thiopropionylamino)-succinic acid 4-(2-{2-[2-(2-acetoxy-benzoyloxy)-ethoxy]-ethoxy}-ethyl) ester [Compound 4]
Stability in assay buffer [10]: limited stability

(S)-2-((S)-2-Amino-thiopropionylamino)-succinic acid 4-[2-(2-amino-6-oxo-1,6-dihydro-purin-9-ylmethoxy)-ethyl] ester [Compound 5]
Stability in assay buffer [10]: limited stability
